Measurements as given in patent US20230416248A1, “COMPOUNDS AND USES THEREOF” (Foghorn Therapeutics Inc., priority 2020, published 2023).

Key:
BRM = molecular target: T1, BRM (Homo sapiens, UniProt P51531); test: ATPase catalytic activity of BRM, ADP-Glo in vitro biochemical assay; settings: for IC50: ATPase catalytic activity, ADP-Glo, 30 nM BRM, 400 μM ATP; for Ratio*: ratio of BRG1 IC50 to BRM IC50
T1 construct: made in house; host or cells: High Five insect cells
Procedure, shortened: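 ADP-Glo luminescence, after depletion of leftover ATP and conversion of ADP, reported the activity. The 1 h room-temperature reaction held 400 μM ATP, 20 nM salmon sperm DNA and 30 nM BRM in 20 mM Tris pH 8, 20 mM MgCl2, 50 mM NaCl, 0.1% Tween-20, 1 mM DTT.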

BRG-1 = molecular target: T2, BRG-1 (Homo sapiens, UniProt P51532); test: ATPase catalytic activity of BRG-1, ADP-Glo in vitro biochemical assay; settings: ATPase catalytic activity, ADP-Glo; 30 nM BRG-1, 400 μM ATP; read-out: BRG1 IC50
T2 construct: made in house; host or cells: High Five insect cells
T2 sequence (P51532 whole entry): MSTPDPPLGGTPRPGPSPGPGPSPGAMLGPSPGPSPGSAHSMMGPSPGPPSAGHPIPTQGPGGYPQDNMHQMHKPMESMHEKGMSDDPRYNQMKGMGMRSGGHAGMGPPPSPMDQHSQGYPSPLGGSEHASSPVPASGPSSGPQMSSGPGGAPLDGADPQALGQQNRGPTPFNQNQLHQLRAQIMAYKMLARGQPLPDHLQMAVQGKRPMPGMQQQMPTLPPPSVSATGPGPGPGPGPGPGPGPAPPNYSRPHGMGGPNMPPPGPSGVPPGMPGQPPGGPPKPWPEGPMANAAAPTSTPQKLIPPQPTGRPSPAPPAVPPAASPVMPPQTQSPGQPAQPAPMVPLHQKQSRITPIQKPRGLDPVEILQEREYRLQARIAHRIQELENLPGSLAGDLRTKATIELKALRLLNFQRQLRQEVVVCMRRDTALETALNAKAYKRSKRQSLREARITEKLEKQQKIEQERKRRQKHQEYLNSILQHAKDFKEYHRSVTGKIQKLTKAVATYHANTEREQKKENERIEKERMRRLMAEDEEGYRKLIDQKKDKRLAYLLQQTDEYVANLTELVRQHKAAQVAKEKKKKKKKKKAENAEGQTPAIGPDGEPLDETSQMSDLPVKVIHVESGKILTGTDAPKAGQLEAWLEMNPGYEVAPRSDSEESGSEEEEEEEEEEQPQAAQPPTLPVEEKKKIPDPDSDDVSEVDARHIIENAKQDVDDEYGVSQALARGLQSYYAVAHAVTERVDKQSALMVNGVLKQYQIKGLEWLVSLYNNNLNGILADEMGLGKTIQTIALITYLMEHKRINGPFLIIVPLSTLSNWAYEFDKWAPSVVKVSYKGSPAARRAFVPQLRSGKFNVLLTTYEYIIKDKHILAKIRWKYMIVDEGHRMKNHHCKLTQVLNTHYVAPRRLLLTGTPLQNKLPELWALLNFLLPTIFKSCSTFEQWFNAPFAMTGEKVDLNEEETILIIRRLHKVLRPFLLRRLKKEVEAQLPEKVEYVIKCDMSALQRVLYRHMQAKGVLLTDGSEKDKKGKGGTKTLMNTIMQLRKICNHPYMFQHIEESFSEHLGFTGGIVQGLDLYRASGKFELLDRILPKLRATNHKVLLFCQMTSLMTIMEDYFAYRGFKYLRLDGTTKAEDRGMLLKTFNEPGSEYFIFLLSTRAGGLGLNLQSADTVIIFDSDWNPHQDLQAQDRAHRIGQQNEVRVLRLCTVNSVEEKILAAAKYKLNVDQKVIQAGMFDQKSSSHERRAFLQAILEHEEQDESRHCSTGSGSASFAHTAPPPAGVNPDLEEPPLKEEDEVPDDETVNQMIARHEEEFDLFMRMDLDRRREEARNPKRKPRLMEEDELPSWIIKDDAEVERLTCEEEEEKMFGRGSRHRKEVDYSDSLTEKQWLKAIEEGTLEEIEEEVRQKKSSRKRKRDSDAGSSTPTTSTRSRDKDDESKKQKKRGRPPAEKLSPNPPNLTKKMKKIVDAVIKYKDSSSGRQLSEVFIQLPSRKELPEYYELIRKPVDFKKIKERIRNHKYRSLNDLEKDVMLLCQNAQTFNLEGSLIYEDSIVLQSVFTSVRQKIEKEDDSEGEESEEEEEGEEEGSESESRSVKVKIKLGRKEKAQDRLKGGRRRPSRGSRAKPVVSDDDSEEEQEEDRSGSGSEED
Procedure, shortened: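 ADP produced by BRG-1 was quantified by luciferase luminescence. A 60 min room-temperature ADP-to-ATP conversion followed a 40 min ATP-depletion step.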

T1 sequence (P51531 whole entry): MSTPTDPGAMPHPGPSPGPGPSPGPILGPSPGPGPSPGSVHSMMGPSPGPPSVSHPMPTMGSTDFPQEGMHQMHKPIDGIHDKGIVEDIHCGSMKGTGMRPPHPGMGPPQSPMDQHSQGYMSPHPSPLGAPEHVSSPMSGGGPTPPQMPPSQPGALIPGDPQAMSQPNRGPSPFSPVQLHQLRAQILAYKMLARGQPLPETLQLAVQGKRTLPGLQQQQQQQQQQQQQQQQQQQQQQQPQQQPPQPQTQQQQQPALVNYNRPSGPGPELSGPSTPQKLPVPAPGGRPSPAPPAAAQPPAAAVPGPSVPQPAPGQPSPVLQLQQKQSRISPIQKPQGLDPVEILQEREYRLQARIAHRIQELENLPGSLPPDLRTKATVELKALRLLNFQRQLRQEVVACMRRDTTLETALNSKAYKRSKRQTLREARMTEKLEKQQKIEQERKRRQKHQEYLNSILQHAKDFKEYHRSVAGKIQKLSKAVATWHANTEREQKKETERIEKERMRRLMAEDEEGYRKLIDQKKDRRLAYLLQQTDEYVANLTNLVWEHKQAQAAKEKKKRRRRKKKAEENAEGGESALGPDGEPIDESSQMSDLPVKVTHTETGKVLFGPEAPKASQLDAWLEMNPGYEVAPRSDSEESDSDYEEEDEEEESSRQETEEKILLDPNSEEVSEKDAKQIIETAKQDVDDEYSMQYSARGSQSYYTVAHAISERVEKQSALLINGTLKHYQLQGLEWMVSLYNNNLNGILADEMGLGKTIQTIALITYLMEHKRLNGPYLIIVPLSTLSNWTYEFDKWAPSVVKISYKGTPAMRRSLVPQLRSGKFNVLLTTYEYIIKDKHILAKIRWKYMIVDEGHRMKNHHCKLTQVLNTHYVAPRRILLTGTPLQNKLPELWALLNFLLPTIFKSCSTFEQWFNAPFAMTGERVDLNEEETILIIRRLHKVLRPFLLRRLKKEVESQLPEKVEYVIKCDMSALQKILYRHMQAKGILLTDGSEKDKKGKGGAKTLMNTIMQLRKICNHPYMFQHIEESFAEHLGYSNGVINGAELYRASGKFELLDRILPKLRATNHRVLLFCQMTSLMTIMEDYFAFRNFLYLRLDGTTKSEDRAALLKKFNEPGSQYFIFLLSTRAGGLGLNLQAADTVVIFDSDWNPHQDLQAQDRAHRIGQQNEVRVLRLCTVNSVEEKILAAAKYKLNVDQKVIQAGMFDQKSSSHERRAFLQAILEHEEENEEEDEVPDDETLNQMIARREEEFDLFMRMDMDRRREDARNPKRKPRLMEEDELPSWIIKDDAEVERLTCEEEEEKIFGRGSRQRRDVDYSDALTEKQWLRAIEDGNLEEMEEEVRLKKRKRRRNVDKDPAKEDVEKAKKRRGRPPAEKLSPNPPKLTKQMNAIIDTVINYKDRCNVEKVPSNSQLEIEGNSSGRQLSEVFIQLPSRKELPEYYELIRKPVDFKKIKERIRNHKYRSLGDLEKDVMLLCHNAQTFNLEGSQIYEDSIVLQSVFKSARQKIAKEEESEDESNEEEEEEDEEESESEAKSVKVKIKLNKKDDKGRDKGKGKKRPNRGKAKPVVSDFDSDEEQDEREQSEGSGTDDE

Row | IC50 (BRM) [nM] | Ratio* (BRM) | IC50 (BRG-1) [nM] | SMILES
1 | 98.2 | 5.20 | 511 | Cn1ncc2c1CCCN2c1ccc2cnc(CNC(=O)c3ccc4c(c3)S(=O)(=O)CCOC4)cc2n1 [Compound 380]
2 | 19.4 | 12.43 | 241 | O=C(NCc1cc2nc(-c3cccc(OCC4CC4)n3)ccc2cn1)c1ccc2c(c1)S(=O)(=O)CCOC2 [Compound 381]
3 | 9.1 | 13.22 | 120 | CN(C[C@@H]1CCO1)c1cccc(-c2ccc3cnc(CNC(=O)c4ccc5c(c4)S(=O)(=O)CCOC5)cc3n2)n1 [Compound 382]
4 | 6.6 | 10.88 | 72.4 | CN(C[C@H]1CCO1)c1cccc(-c2ccc3cnc(CNC(=O)c4ccc5c(c4)S(=O)(=O)CCOC5)cc3n2)n1 [Compound 383]
5 | 14.3 | 28.41 | 407 | C[C@H]1COCc2ccc(C(=O)NCc3cc4nc(-c5cccc(OC(F)F)n5)ccc4cn3)cc2S1(=O)=O [Compound 384]
6 | 9.2 | 15.24 | 140 | COc1cc(Cl)ccc1-c1ccc2cnc(CNC(=O)c3ccc4c(c3)S(=O)(=O)[C@@H](C)COC4)cc2n1 [Compound 386]
7 | 68.3 | 10.65 | 727 | COc1cc(C2CC2)ccc1-c1ccc2cnc(CNC(=O)c3ccc4c(c3)S(=O)(=O)CCOC4)cc2n1 [Compound 387]
8 | 18.4 | 31.86 | 587 | C[C@H]1COCc2ccc(C(=O)NCc3cc4nc(-c5cccc(OC(F)(F)F)n5)ccc4cn3)cc2S1(=O)=O [Compound 388]
9 | 13.7 | 38.63 | 528 | C[C@@H]1CN(c2cccc(-c3ccc4cnc(CNC(=O)c5cc(Cl)c6c(c5)S(=O)(=O)CCOC6)cc4n3)n2)C[C@H](C)O1 [Compound 389]
10 | 60.7 | 17.24 | 1050 | O=C(NCc1cc2nc(-c3cccc(OCC4CC(F)(F)C4)n3)ccc2cn1)c1ccc2c(c1)S(=O)(=O)CCOC2 [Compound 390]
11 | 28.7 | 15.87 | 456 | O=C(NCc1cc2nc(-c3cccc(OCC4CC4(F)F)n3)ccc2cn1)c1ccc2c(c1)S(=O)(=O)CCOC2 (stereo not drawn) [Compound 391]
12 | 42.1 | 26.15 | 1100 | C[C@H]1COCc2ccc(C(=O)NCc3cc4nc(-c5cccc([C@H]6CC6(F)F)n5)ccc4cn3)cc2S1(=O)=O [Compound 392]
13 | 19 | 33.52 | 638 | C[C@H]1COCc2ccc(C(=O)NCc3cc4nc(-c5cccc([C@@H]6CC6(F)F)n5)ccc4cn3)cc2S1(=O)=O [Compound 393]
14 | 5.8 | 15.21 | 87.9 | O=C(NCc1cc2nc(N3CCCc4cc(C5CC5)cnc43)ccc2cn1)c1ccc2c(c1)S(=O)(=O)CCOC2 [Compound 394]
15 | 4.1 | 14.47 | 58.6 | Cc1cnc2c(c1)CCCN2c1ccc2cnc(CNC(=O)c3cc(F)c4c(c3)S(=O)(=O)CCOC4)cc2n1 [Compound 395]
16 | 5.9 | 17.40 | 104 | Cc1cnc2c(c1)CCCN2c1ccc2cnc(CNC(=O)c3ccc4c(c3)S(=O)(=O)[C@@H](C)COC4)cc2n1 [Compound 396]
17 | 15.2 | 11.51 | 175 | Cn1c(C(F)F)cc2c(-c3ccc4cnc(CNC(=O)c5ccc6c(c5)S(=O)(=O)CCOC6)cc4n3)ccnc21 [Compound 397]
18 | 185 | 4.97 | 919 | O=C(NCc1cc2nc(-c3cccc(N(C4CCOCC4)C4CC4)n3)ccc2cn1)c1ccc2c(c1)S(=O)(=O)CCOC2 [Compound 398]
19 | 7.8 | 14.57 | 114 | COc1nc(-c2ccc3cnc(CNC(=O)c4ccc5c(c4)S(=O)(=O)CCOC5)cc3n2)ccc1C(F)F [Compound 399]
20 | 20.4 | 23.51 | 478 | COCCn1ncc2c1CCCN2c1ccc2cnc(CNC(=O)c3ccc4c(c3)S(=O)(=O)CCOC4)cc2n1 [Compound 400]
21 | 5.7 | 10.67 | 60.9 | COCCN1CCOc2c(-c3ccc4cnc(CNC(=O)c5ccc6c(c5)S(=O)(=O)CCOC6)cc4n3)ccc(F)c21 [Compound 402]
22 | 8.4 | 17.03 | 142 | COc1nc(C(F)F)ccc1-c1ccc2cnc(CNC(=O)c3cc(F)c4c(c3)S(=O)(=O)CCOC4)cc2n1 [Compound 404]
23 | 10.9 | 17.27 | 188 | COc1nc(C(F)F)ccc1-c1ccc2cnc(CNC(=O)c3ccc4c(c3)S(=O)(=O)[C@@H](C)COC4)cc2n1 [Compound 405]

Row | IC50 (BRM) [nM] | Ratio* (BRM) | IC50 (BRG-1) [nM] | SMILES
24 | 5 | 13.86 | 69.7 | C[C@@H]1CN(c2cccc(-c3ccc4nnc(CNC(=O)c5ccc(Cl)c(S(C)(=O)=O)c5)cc4n3)n2)C[C@H](C)O1 [Compound 406]
25 | 12.5 | 4.69 | 58.6 | C[C@@H]1CN(c2cccc(-c3ccc4cnc(CNC(=O)c5cnc6c(c5)S(=O)(=O)CCCC6(F)F)cc4n3)n2)C[C@H](C)O1 [Compound 407]
26 | 476 | 4.77 | 2270 | Cc1ccc2c(n1)CN(c1ccc3cnc(CNC(=O)c4ccc5c(c4)S(=O)(=O)CCOC5)cc3n1)CC2 [Compound 408]
27 | 16.6 | 8.58 | 143 | O=C(NCc1cc2nc(-c3cccc4c3OCC[C@H]4OC3COC3)ccc2cn1)c1ccc2c(c1)S(=O)(=O)CCOC2 [Compound 409]
28 | 165 | 6.68 | 1100 | O=C(NCc1cc2nc(-c3cccc4c3OCC[C@@H]4OC3COC3)ccc2cn1)c1ccc2c(c1)S(=O)(=O)CCOC2 [Compound 410]
29 | 14.6 | 18.90 | 275 | COc1nc(C)ccc1-c1ccc2cnc(CNC(=O)c3ccc4c(c3)S(=O)(=O)[C@@H](C)COC4)cc2n1 [Compound 411]
30 | 76.5 | 8.53 | 653 | COC[C@H]1C[C@H]1N(C)c1cccc(-c2ccc3cnc(CNC(=O)c4ccc5c(c4)S(=O)(=O)CCOC5)cc3n2)n1 [Compound 412]
31 | 12.9 | 16.27 | 210 | COC[C@@H]1C[C@@H]1N(C)c1cccc(-c2ccc3cnc(CNC(=O)c4ccc5c(c4)S(=O)(=O)CCOC5)cc3n2)n1 [Compound 413]
32 | 23.3 | 8.27 | 193 | CC1CCc2ccc(-c3ccc4cnc(CNC(=O)c5ccc6c(c5)S(=O)(=O)CCOC6)cc4n3)nc2N1C (stereo not drawn) [Compound 414]
33 | 20.6 | 23.93 | 494 | C[C@@H]1CN(c2cccc(-c3ccc4cnc(CNC(=O)c5ccc6c(c5)S(=O)(=O)CCCN6C)cc4n3)n2)C[C@H](C)O1 [Compound 415]
34 | 98.3 | 21.63 | 2130 | C[C@@H]1CCS(=O)(=O)c2cc(C(=O)NCc3cc4nc(-c5cccc(N6C[C@@H](C)O[C@@H](C)C6)n5)ccc4cn3)ccc2O1 [Compound 416]
35 | 13.6 | 14.19 | 193 | C[C@@H]1CN(c2cccc(-c3ccc4cnc(CNC(=O)c5ccc6c(c5)S(=O)(=O)CC[C@H](C)O6)cc4n3)n2)C[C@H](C)O1 [Compound 418]
36 | 24.5 | 15.63 | 384 | COc1cc(C(C)(F)F)ccc1-c1ccc2cnc(CNC(=O)c3ccc4c(c3)S(=O)(=O)CCOC4)cc2n1 [Compound 419]
37 | 4.2 | 10.13 | 42.6 | Cc1ccc2c(c1)OCCN2c1ccc2cnc(CNC(=O)c3ccc4c(c3)S(=O)(=O)CCOC4)cc2n1 [Compound 420]
38 | 56.8 | 14.57 | 828 | O=C(NCc1cc2nc(-c3cccc4c3CC3COCCN43)ccc2cn1)c1ccc2c(c1)S(=O)(=O)CCOC2 (stereo not drawn) [Compound 421]
39 | 10.9 | 28.45 | 310 | O=C(NCc1cc2nc(-c3cccc(C4CC4)n3)ccc2nn1)c1cc(F)c2c(c1)S(=O)(=O)CCOC2 [Compound 422]
40 | 15.2 | 32.23 | 491 | C[C@H]1COCc2ccc(C(=O)NCc3cc4nc(-c5cccc(C6CC6)n5)ccc4nn3)cc2S1(=O)=O [Compound 423]
41 | 20.8 | 29.03 | 603 | O=C(NCc1cc2nc(-c3cccc(C4CC4)n3)cnc2cn1)c1cc(F)c2c(c1)S(=O)(=O)CCOC2 [Compound 424]
42 | 101 | 9.58 | 966 | CC1CCc2ccc(-c3ccc4cnc(CNC(=O)c5ccc6c(c5)S(=O)(=O)CCOC6)cc4n3)nc2N1C1CC1 (stereo not drawn) [Compound 425]
43 | 23.8 | 5.71 | 136 | CC1COc2ccc(-c3ccc4cnc(CNC(=O)c5ccc6c(c5)S(=O)(=O)CCOC6)cc4n3)nc2N1C (stereo not drawn) [Compound 426]
44 | 47.3 | 9.12 | 431 | O=C(NCc1cc2nc(-c3cccc(OC4CC4(F)F)n3)ccc2cn1)c1ccc2c(c1)S(=O)(=O)CCOC2 (stereo not drawn) [Compound 427]
45 | 50.3 | 6.45 | 324 | O=C(NCc1cc2nc(-c3cccc(N(CC4COC4)C4CC4)n3)ccc2cn1)c1ccc2c(c1)S(=O)(=O)CCOC2 [Compound 428]
46 | 7.4 | 10.32 | 76.4 | Cc1cnc2c(c1C)CCCN2c1ccc2cnc(CNC(=O)c3ccc4c(c3)S(=O)(=O)CCOC4)cc2n1 [Compound 429]
